Experimental data: patent US20100285597A1, “DETECTION OF FRAGMENTS OF NECTIN-1 FOR THE DIAGNOSIS OF ALZHEIMER'S DISEASE” (UNIVERSITY OF ROCHESTER, priority 2007, published 2010)

Test system: γ-secretase
Experiment: Western blot of nectin-1 C-terminal fragments in hippocampal neurons overexpressing flag tagged nectin-1, treated with γ-secretase inhibitor
Assay type: cell-based, rat
Settings: 0.5 and 1 μM inhibitor, 24 hrs, transduced hippocampal neurons at 21 DIV
Description: Hippocampal neurons were plated at a density of 1.3×10^5 cells. The neurons at 21 DIV were transduced with an adenovirus vector expressing a C-terminal flag tagged nectin-1 for 24 hrs at a MOI of 50. Neurons were treated without (FIG. 3, lanes 1 and 2) or with 0.5 μM (FIG. 3, lanes 3 and 4) and 1 μM γ-secretase inhibitor X (FIG. 3, lanes 5 and 6) for 24 hrs. These cells were harvested in reducing sample buffer and analyzed on a 10% SDS-PAGE gel.
Technical difficulties preclude detection of endogenous C-terminal fragments, particularly the 35 and 24 kDa forms due to low expression levels in neurons. To circumvent this, C-terminal Flag tagged nectin-1 was over expressed in neurons as described above.

## CC(C)C[C@H](NC(=O)[C@H](Cc1ccccc1)C[C@@H](O)[C@H](Cc1ccccc1)NC(=O)OC(C)(C)C)C(=O)N[C@@H](Cc1ccccc1)C(N)=O [γ-secretase inhibitor X]
  density of the 24 kDa nectin-1 band: reduced
  density of the 37, 34 and 30 kDa nectin-1 bands: increased
